# Measurements reported in PubChem BioAssay AID1919005 (Molecular Pharmacology Branch, DTP, NCI, 2023).
# Test system: 855422-203-R-J1-PDC complex spheroid growth
# Assay: Anticancer human tumor 855422-203-R-J1-PDC patient-derived bladder carcinoma cell line growth inhibition [AhR]
# Conditions: for IC50: curve of first compound; for viability, T/C: stronger effect = lower value
# Outline: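 Spheroids combined tumor cells with HUVEC endothelial cells and human MSCs as stroma. AhR antagonists were paired with standard or investigational drugs, each dosed in half-log steps down from near clinical Cmax, or from 10 microM where Cmax was unknown.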
# [1] = second compound 0.1 µM, first compound 0.0316 µM
# [2] = second compound 0.1 µM, first compound 0.1 µM
# [3] = second compound 0.1 µM, first compound 0.316 µM
# [4] = second compound 0.1 µM, first compound 1 µM
# [5] = second compound 0.1 µM, first compound 3.16 µM
# [6] = second compound 0.1 µM, first compound 10 µM
# [7] = second compound 0.316 µM, first compound 0.0316 µM
# [8] = second compound 0.316 µM, first compound 0.1 µM
# [9] = second compound 0.316 µM, first compound 0.316 µM
# [10] = second compound 0.316 µM, first compound 1 µM
# [11] = second compound 0.316 µM, first compound 3.16 µM
# [12] = second compound 0.316 µM, first compound 10 µM
# [13] = second compound 1 µM, first compound 0.0316 µM
# [14] = second compound 1 µM, first compound 0.1 µM
# [15] = second compound 1 µM, first compound 0.316 µM
# [16] = second compound 1 µM, first compound 1 µM
# [17] = second compound 1 µM, first compound 3.16 µM
# [18] = second compound 1 µM, first compound 10 µM
# [19] = second compound 3.16 µM, first compound 0.0316 µM
# [20] = second compound 3.16 µM, first compound 0.1 µM
# [21] = second compound 3.16 µM, first compound 0.316 µM
# [22] = second compound 3.16 µM, first compound 1 µM
# [23] = second compound 3.16 µM, first compound 3.16 µM
# [24] = second compound 3.16 µM, first compound 10 µM
# [25] = second compound 10 µM, first compound 0.0316 µM
# [26] = second compound 10 µM, first compound 0.1 µM
# [27] = second compound 10 µM, first compound 0.316 µM
# [28] = second compound 10 µM, first compound 1 µM
# [29] = second compound 10 µM, first compound 3.16 µM
# [30] = second compound 10 µM, first compound 10 µM
# 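Note: spheroids exposed to agents for seven days before readout.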
# 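Throughout, for viability, T/C: percent of DMSO vehicle control luminescence viability.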
smiles,measurement,setting,value
CC1(C)CCC(CN2CCN(c3ccc(C(=O)NS(=O)(=O)c4ccc(NCC5CCOCC5)c([N+](=O)[O-])c4)c(Oc4cnc5[nH]ccc5c4)c3)CC2)=C(c2ccc(Cl)cc2)C1 + Cc1cncc(-c2nc(NCCc3c[nH]c4ccccc34)c3ncn(C(C)C)c3n2)c1,IC50,second compound 0.1 µM,6140 nM
same,IC50,second compound 0.316 µM,5810 nM
same,IC50,second compound 1 µM,5450 nM
same,IC50,second compound 3.16 µM,4530 nM
same,IC50,second compound 10 µM,< 31.6 nM
same,"viability, T/C",[1],93.9%
same,"viability, T/C",[2],92.2%
same,"viability, T/C",[3],98.1%
same,"viability, T/C",[4],117%
same,"viability, T/C",[5],108%
same,"viability, T/C",[6],11.9%
same,"viability, T/C",[7],94.2%
same,"viability, T/C",[8],91.1%
same,"viability, T/C",[9],85.8%
same,"viability, T/C",[10],90.3%
same,"viability, T/C",[11],98.2%
same,"viability, T/C",[12],12.6%
same,"viability, T/C",[13],83%
same,"viability, T/C",[14],96.7%
same,"viability, T/C",[15],83.7%
same,"viability, T/C",[16],76.7%
same,"viability, T/C",[17],84.8%
same,"viability, T/C",[18],11.3%
same,"viability, T/C",[19],76.2%
same,"viability, T/C",[20],80.7%
same,"viability, T/C",[21],77.7%
same,"viability, T/C",[22],60.8%
same,"viability, T/C",[23],69.5%
same,"viability, T/C",[24],13.8%
same,"viability, T/C",[25],38%
same,"viability, T/C",[26],30.6%
same,"viability, T/C",[27],22.1%
same,"viability, T/C",[28],14.7%
same,"viability, T/C",[29],24.5%
same,"viability, T/C",[30],10.5%
COc1cc(Nc2ncc3c(n2)-c2ccc(Cl)cc2C(c2c(F)cccc2OC)=NC3)ccc1C(=O)O + Cc1cncc(-c2nc(NCCc3c[nH]c4ccccc34)c3ncn(C(C)C)c3n2)c1,IC50,second compound 0.1 µM,> 10000 nM
same,IC50,second compound 0.316 µM,> 10000 nM
same,IC50,second compound 1 µM,987 nM
same,IC50,second compound 3.16 µM,995 nM
same,IC50,second compound 10 µM,< 31.6 nM
same,"viability, T/C",[1],104%
same,"viability, T/C",[2],101%
same,"viability, T/C",[3],61.5%
same,"viability, T/C",[4],55%
same,"viability, T/C",[5],50.6%
same,"viability, T/C",[6],45.4%
same,"viability, T/C",[7],98.7%
same,"viability, T/C",[8],94.8%
same,"viability, T/C",[9],61.4%
same,"viability, T/C",[10],52.4%
same,"viability, T/C",[11],52.5%
same,"viability, T/C",[12],50.7%
same,"viability, T/C",[13],99%
same,"viability, T/C",[14],90.5%
same,"viability, T/C",[15],63.2%
same,"viability, T/C",[16],49.3%
same,"viability, T/C",[17],48.6%
same,"viability, T/C",[18],48.2%
same,"viability, T/C",[19],82.8%
same,"viability, T/C",[20],75.9%
same,"viability, T/C",[21],59.7%
same,"viability, T/C",[22],48.6%
same,"viability, T/C",[23],52.2%
same,"viability, T/C",[24],44.8%
same,"viability, T/C",[25],27.9%
same,"viability, T/C",[26],26.7%
same,"viability, T/C",[27],14.8%
same,"viability, T/C",[28],11.4%
same,"viability, T/C",[29],22.5%
same,"viability, T/C",[30],26.4%
Cn1ncnc1C1c2n[nH]c(=O)c3cc(F)cc(c23)NC1c1ccc(F)cc1 (stereo not given) + Cc1cncc(-c2nc(NCCc3c[nH]c4ccccc34)c3ncn(C(C)C)c3n2)c1,IC50,second compound 0.1 µM,> 100 nM
same,IC50,second compound 0.316 µM,> 100 nM
same,IC50,second compound 1 µM,> 100 nM
same,IC50,second compound 3.16 µM,> 100 nM
same,IC50,second compound 10 µM,< 0.316 nM
same,"viability, T/C","second compound 0.1 µM, first compound 0.000316 µM",84.1%
same,"viability, T/C","second compound 0.1 µM, first compound 0.001 µM",85.3%
same,"viability, T/C","second compound 0.1 µM, first compound 0.00316 µM",87.6%
same,"viability, T/C","second compound 0.1 µM, first compound 0.01 µM",95.9%
same,"viability, T/C",[1],87.8%
same,"viability, T/C",[2],88.2%
same,"viability, T/C","second compound 0.316 µM, first compound 0.000316 µM",91.7%
same,"viability, T/C","second compound 0.316 µM, first compound 0.001 µM",80.8%
same,"viability, T/C","second compound 0.316 µM, first compound 0.00316 µM",73.1%
same,"viability, T/C","second compound 0.316 µM, first compound 0.01 µM",88.5%
same,"viability, T/C",[7],90.3%
same,"viability, T/C",[8],81.6%
same,"viability, T/C","second compound 1 µM, first compound 0.000316 µM",81.3%
same,"viability, T/C","second compound 1 µM, first compound 0.001 µM",86.2%
same,"viability, T/C","second compound 1 µM, first compound 0.00316 µM",76.4%
same,"viability, T/C","second compound 1 µM, first compound 0.01 µM",78.3%
same,"viability, T/C",[13],77.2%
same,"viability, T/C",[14],84%
same,"viability, T/C","second compound 3.16 µM, first compound 0.000316 µM",67.6%
same,"viability, T/C","second compound 3.16 µM, first compound 0.001 µM",74.4%
same,"viability, T/C","second compound 3.16 µM, first compound 0.00316 µM",71.4%
same,"viability, T/C","second compound 3.16 µM, first compound 0.01 µM",56.6%
same,"viability, T/C",[19],76.9%
same,"viability, T/C",[20],75.2%
same,"viability, T/C","second compound 10 µM, first compound 0.000316 µM",30.7%
same,"viability, T/C","second compound 10 µM, first compound 0.001 µM",29.6%
same,"viability, T/C","second compound 10 µM, first compound 0.00316 µM",21.5%
same,"viability, T/C","second compound 10 µM, first compound 0.01 µM",5.12%
same,"viability, T/C",[25],23.6%
same,"viability, T/C",[26],26.1%
NS(=O)(=O)OCC1CC(n2ccc3c(NC4CCc5ccccc54)ncnc32)CC1O (stereo not given) + Cc1cncc(-c2nc(NCCc3c[nH]c4ccccc34)c3ncn(C(C)C)c3n2)c1,IC50,second compound 0.1 µM,860 nM
same,IC50,second compound 0.316 µM,647 nM
same,IC50,second compound 1 µM,499 nM
same,IC50,second compound 3.16 µM,216 nM
same,IC50,second compound 10 µM,< 31.6 nM
same,"viability, T/C",[1],114%
same,"viability, T/C",[2],119%
same,"viability, T/C",[3],78.2%
same,"viability, T/C",[4],50.4%
same,"viability, T/C",[5],12.8%
same,"viability, T/C",[6],10.9%
same,"viability, T/C",[7],96.5%
same,"viability, T/C",[8],113%
same,"viability, T/C",[9],52.1%
same,"viability, T/C",[10],50.9%
same,"viability, T/C",[11],10.8%
same,"viability, T/C",[12],9.91%
same,"viability, T/C",[13],98.3%
same,"viability, T/C",[14],106%
same,"viability, T/C",[15],50.7%
same,"viability, T/C",[16],40.3%
same,"viability, T/C",[17],11.7%
same,"viability, T/C",[18],9.3%
same,"viability, T/C",[19],80.2%
same,"viability, T/C",[20],75.9%
same,"viability, T/C",[21],37.1%
same,"viability, T/C",[22],12.5%
same,"viability, T/C",[23],8.33%
same,"viability, T/C",[24],8.5%
same,"viability, T/C",[25],9.89%
same,"viability, T/C",[26],4.7%
same,"viability, T/C",[27],3.03%
same,"viability, T/C",[28],0.63%
same,"viability, T/C",[29],1.67%
same,"viability, T/C",[30],1.45%
